From article PMC6154692, “Determination of Vancomycin in Human Serum by Cyclodextrin-Micellar Electrokinetic Capillary Chromatography (CD-MEKC) and Application for PDAP Patients” (Molecules : A Journal of Synthetic Chemistry and Natural …, 2017)

What was measured:
[1] = Stability of VCM in spiked human serum QC samples (bench-top, 30-day, autosampler, freeze-thaw), read by CD-MEKC; assay type: in vitro ADME; conditions: for Accuracy (%), autosampler stability / Accuracy (%), freeze–thaw stability / Accuracy (%), bench-top stability / Accuracy (%), 30-day stability: found vs initial concentration, CD-MEKC UV; for Accuracy (%), autosampler stability: 25 °C for 8 h; for Accuracy (%), autosampler stability / Accuracy (%), freeze–thaw stability / Accuracy (%), bench-top stability / Accuracy (%), 30-day stability / Measured Concentration (Mean ± SD), bench-top stability / Measured Concentration (Mean ± SD), autosampler stability / Measured Concentration (Mean ± SD), freeze–thaw stability / Measured Concentration (Mean ± SD), 30-day stability: n = 5; for Accuracy (%), freeze–thaw stability: three freeze–thaw cycles; for Accuracy (%), bench-top stability: 25 °C for 2 h; for Accuracy (%), 30-day stability: −80 °C, 30 days; for Measured Concentration (Mean ± SD), bench-top stability: ambient temperature (25 °C) for 2 h; for Measured Concentration (Mean ± SD), bench-top stability / Measured Concentration (Mean ± SD), autosampler stability / Measured Concentration (Mean ± SD), freeze–thaw stability / Measured Concentration (Mean ± SD), 30-day stability: CD-MEKC UV 210 nm; for Measured Concentration (Mean ± SD), autosampler stability: spiked human serum sample, kept at ambient temperature (25 °C) for 8 h; for Measured Concentration (Mean ± SD), freeze–thaw stability: after three freeze–thaw cycles; for Measured Concentration (Mean ± SD), 30-day stability: stored at −80 °C for 30 days
Procedure: Analyte stability determinations comprised short-term temperature stability (bench-top stability), long-term stability (30-day stability), autosampler stability, and freeze-thaw cycles stability, which were evaluated by analyzing three QC levels in VCM. The peak areas obtained from both stability tests were compared with the peak areas obtained with freshly prepared samples. The mean values and standard deviations of the ratios between the concentrations found and initial concentration were used for stability evaluation.
The BGE used in this study was 25 mM borate buffer with 50 mM SDS and 2% sulfobutyl-β-CD (pH 9.50). It was prepared by weighting appropriate amounts of Na2B4O7∙10H2O, SDS, and sulfobutyl-β-CD, followed by thoroughly mixing and dissolving with 100 mL deionized water. NaOH (1 mol/L) was used for adjusting pH to 9.50. BGE solutions were prepared freshly every day and filtered through a 0.45 μm hydrophilic cellulose membrane filter prior to use. The separation voltage was 15 kV (+) → (−). Hydrodynamic injection mode was performed at a pressure of 0.5 psi for 5 s. The capillary was conditioned by rinsing with 0.1 mol/L NaOH (1 min) followed by BGE (5 min) sequentially between the runs in order to maintain an active and reproducible inner surface.
Standard stock solution (1 mg/mL) of VCM and the IS were prepared in methanol. Working standard solutions (ranging from 10 to 500 µg/mL) were prepared daily by diluting the stock solution to the desired concentration with deionized water. The IS solution was prepared by deionized water at the concentration of 200 µg/mL. The standard solutions were stored in brown glass vials to protect from light at 4 °C. Calibration samples were obtained by diluting standard working solutions (10 μL) with drug-free human control serum (90 μL), to span a calibration standard range of 1–100 µg/mL for VCM. QC samples (3, 15, 80 µg/mL) were independently prepared by spiking an appropriate amount of the working standard solution in drug-free human control serum.
A simple and rapid sample preparation was applied by protein precipitation in SiroccoTM 96-well filtration plate (Waters Corp., Milford, MA, USA). Standard curve samples (100 μL), QC samples, and subject serum samples were added individually into 96-well plates by an eight-channel hand-held pipettor. To precipitate the serum protein, 200 μL ACN (acetonitrile) solution c ontaining 100 μg/mL of the IS solution was added to each sample (standards, QCs, and samples). Sirocco plates were capped and mixed by vortexing for 3 min and held for 15 min, subsequently placed on a vacuum manifold, and filtered to remove any precipitated material. The filtrate was collected into another 96-well plate and was evaporated to dryness with a nitrogen flow at 37 °C (TURBOVAP 96, Biotage, Uppsala, Sweden). All dry residues were reconstituted by the addition of 50 μL water. Finally, the plates were vortex mixed for 1 min, followed by centrifugation for 10 min at 12,000 rpm at 4 °C using a 5804 R Eppendorf refrigerated centrifuge (Hamburg, Germany). The supernatant was transferred to the autosampler for injection onto the CE.

PDAP patients = assay: Clinical safety observation in PDAP patients treated with i.p. vancomycin; assay type: in vivo, human
Procedure: Patients were treated with intraperitoneal (i.p.) vancomycin (Vancocin, Eli Lilly) for 1.0 g every 5–7 days. Nine PDAP patients’ samples were collected, and the trough concentrations of VCM were measured. […] Side effects were not observed in patients who were treated with VCM. The 15–20 µg/mL range was determined in three samples (17.06 µg/mL, 15.39 µg/mL, and 19.25 µg/mL), which was reported as the effective treatment window. […] In view of patients’ residual renal function and peritoneal permeability, levels <15 µg/mL were found in four samples (12.88 µg/mL, 5.48 µg/mL, 8.90 µg/mL, and 9.30 µg/mL). ISPD recommends that re-dosing is appropriate once serum vancomycin levels go below 15 µg/mL.

[2] = intraperitoneal, in the presence of peritonitis; ref guideline of ISPD; cited from earlier work
[3] = set-up: method as in doi:10.1016/0378-5173(93)90252-B; conditions: cited from earlier work
Source text: The pH value of BGE is an important factor in CE. VCM is a glycopeptide antibiotic with quite a complex structure. It contains six functional groups which participate in acid-base equilibria. Namely, its net charge in solution strongly depends on the solution pH. […] Protonations of amino (primary and secondary amino) and three phenolate groups take place between pH 13 and 5 in multiply overlapping stages. […] Owing to t ...

[4] = spiked human serum, HQC 80 µg/mL
[5] = spiked human serum, LQC 3 µg/mL
[6] = spiked human serum, MQC 15 µg/mL

CN[C@H](CC(C)C)C(=O)N[C@H]1C(=O)N[C@@H](CC(N)=O)C(=O)N[C@H]2C(=O)N[C@H]3C(=O)N[C@H](C(=O)N[C@H](C(=O)O)c4cc(O)cc(O)c4-c4cc3ccc4O)[C@H](O)c3ccc(c(Cl)c3)Oc3cc2cc(c3O[C@@H]2O[C@H](CO)[C@@H](O)[C@H](O)[C@H]2O[C@H]2C[C@](C)(N)[C@H](O)[C@H](C)O2)Oc2ccc(cc2Cl)[C@H]1O [VCM, vancomycin]
Stability in spiked serum samples (in words) ([1]; bench-top, 30-day, autosampler and freeze-thaw conditions, three QC levels): stable | Accuracy (%), autosampler stability ([1]; HQC 80 µg/mL): 105.70% | Accuracy (%), freeze–thaw stability ([1]; HQC 80 µg/mL): 108.80% | Accuracy (%), autosampler stability ([1]; LQC 3 µg/mL): 103.80% | Accuracy (%), freeze–thaw stability ([1]; LQC 3 µg/mL): 110.40% | Accuracy (%), autosampler stability ([1]; MQC 15 µg/mL): 107.10% | Accuracy (%), freeze–thaw stability ([1]; MQC 15 µg/mL): 104.60% | Accuracy (%), bench-top stability [1, 4]: 108.40% | Accuracy (%), 30-day stability [1, 4]: 106.60% | Accuracy (%), bench-top stability [1, 5]: 107.80% | Accuracy (%), 30-day stability [1, 5]: 104.70% | Accuracy (%), bench-top stability [1, 6]: 102.70% | Accuracy (%), 30-day stability [1, 6]: 104.90% | Measured Concentration (Mean ± SD), bench-top stability ([1]; spiked human serum (table title: plasma), LQC 3 µg/mL): 3.271 ± 0.02 µg/mL | Measured Concentration (Mean ± SD), autosampler stability ([1]; HQC 80 µg/mL): 85.57 ± 0.29 µg/mL | Measured Concentration (Mean ± SD), autosampler stability ([1]; LQC 3 µg/mL): 3.15 ± 0.01 µg/mL | Measured Concentration (Mean ± SD), autosampler stability ([1]; MQC 15 µg/mL): 16.26 ± 0.09 µg/mL | Measured Concentration (Mean ± SD), freeze–thaw stability [1, 4]: 88.01 ± 0.23 µg/mL | Measured Concentration (Mean ± SD), bench-top stability [1, 4]: 87.69 ± 0.38 µg/mL | Measured Concentration (Mean ± SD), 30-day stability [1, 4]: 86.24 ± 0.52 µg/mL | Measured Concentration (Mean ± SD), freeze–thaw stability [1, 5]: 3.35 ± 0.02 µg/mL | Measured Concentration (Mean ± SD), 30-day stability [1, 5]: 3.18 ± 0.01 µg/mL | Measured Concentration (Mean ± SD), freeze–thaw stability [1, 6]: 15.88 ± 0.07 µg/mL | Measured Concentration (Mean ± SD), bench-top stability [1, 6]: 15.59 ± 0.09 µg/mL | Measured Concentration (Mean ± SD), 30-day stability [1, 6]: 15.92 ± 0.08 µg/mL | Side effects (PDAP patients; PDAP patients treated with VCM, i.p. 1.0 g every 5–7 days): not observed | Changes in renal function before and after treatment (PDAP patients; nine PDAP patients, i.p. vancomycin 1.0 g every 5–7 days): No significant changes | Fraction of i.p. vancomycin absorbed [2]: approximately 90% | pI value [3]: about 7.10
